“Also recorded” adds a separate entry of the source.

In this assay the target is T1, rat GABAA receptors α1β2γ2 (Rattus norvegicus, UniProt P18508+P62813).
T1 construct: expressed in transfected cells; host or cells: Xenopus laevis oocytes, cRNA microinjected
Kind of assay: Stimulation of GABA (EC3-5)-elicited currents in Xenopus oocytes, two-electrode voltage clamp, α1β2γ2. The assay is classed as cell-based. The source says:
7-Chloro-3-(5-dimethylaminomethyl-[1,2,4]oxadiazol-3-yl)-5methyl-4,5-dihydro-imidazol[1,5,-a][1,4]benzodiazepine-6-one was used to test the effects of the compound of formula (II): […]
Similar procedures were chosen as for the investigation of other GABAA receptor subunit specific substances (e.g., Baur et al., 2005; Mol. Pharmacol. 68, 787-792).
Lobes of the ovary containing the follicles were obtained by surgical procedures from female Xenopus laevis. Follicles were singled out using a platinum loop. Fifty nL of cRNA solution at a ratio of αx:β2:γ2 of 1:1:5 (3.3-10 nM αx (x=1,2,3,5); 3.3-10 nM β2; 16.7-50 nM γ2) (Boileau et al., 2002; Neuropharmacology 43, 695-700) were microinjected into Xenopus follicles. Several hours after microinjection the follicles were freed of follicular layers and adhering connective tissue by a collagenase/hypertonic shock procedure (Sigel, 1987; J. Physiol.(Land) 386, 73-90). Oocytes were kept at constant 18° C. until measurement (1-4 days) in a modified Barth solution (88 mM NaCl, 1 mM KCl, 2.4 mM NaHCO3, 10 mM Hepes-NaOH (pH 7.5), 0.82 mM MgSO4×7H2O, 0.34 mM Ca(NO3)2×4H2O, 0.41 mM CaCl2×2H2O, 100 U Penicillin/mL, 100 μg Streptomycin/mL, sterile filtered).
Currents were measured using a home-built amplifier in combination with a xy-recorder or were digitized using a MacLab/200 (AD Instruments) and stored on a computer. Xenopus oocytes were voltage clamped using the two-electrode voltage clamp technique (electrode resistance about 0.8 MΩ) at −80 mV. The medium contained 90 mM NaCl, 1 mM KCl, 1 mM MgCl2, 1 mM CaCl2, 10 mM Na-Hepes (pH 7.4) and 0.5% DMSO.
GABA was applied for 20-50 seconds without or in combination with other drugs and a washout period of 4 minutes was allowed to ensure full recovery from desensitization, which was experimentally determined. The perfusion solution (6 mL/min) was applied through a glass capillary with an inner diameter of 1.35 mm, the mouth of which was placed about 0.4 mm from the surface of the oocyte. The rate of solution change under our conditions has been estimated 70% within less than 0.5 s (Sigel et al., 1990; Neuron 5, 703-711). The entire perfusion system and the assay chamber were cleaned between drug applications by washing with DMSO.
Data is given as mean±SD, except in the figures where data is shown for clarity as mean±SEM. Current stimulation was calculated as follows: stimulation (%)=((I(GABA+modulator)−I(GABA))/I(GABA))×100%, where I is the current amplitude. Where indicated, the stimulation was standardized to the stimulation by 1 μM diazepam (100%). To obtain FIGS. 1-4, values for current stimulation obtained at a given concentration of modulator at a given subunit combination were averaged. The data points were fitted with the equation stimulation=efficacy/(1+(potency/concentration of modulator)). The values given in the Tables (Summary) are obtained by fitting individual curves and subsequently averaging efficacy and potency.
GABA (EC3-5) was applied to an oocyte expressing α1β2γ2 GABAA receptors several times until the current response was stable. The GABA (EC3-5) refers to the effective concentration of GABA, which produces a response that is 3-5% of the maximal response to high concentrations of GABA. Such a low concentration of GABA is chosen in order to better see the potentiating effect of positive allosteric modulators.
GABA was then applied in combination with various concentrations of the compound of formula (II) between 0.3 nM and 3,000 nM to produce a cumulative concentration response curve. […] In each batch of oocytes the stimulation by 1 μM diazepam was determined in five ocytes, extent of stimulation averaged and defined as 100%. Where indicated, stimulation by the compound of formula (II) in each batch of ocytes was expressed as a percentage of this value in the corresponding batch.
GABA (EC3-5) was applied to an oocyte expressing α1β2γ2 GABAA receptors several times until the current response was stable.
On the technique in general: In two-electrode clamp one electrode senses voltage and the other passes current.

T1 sequence (P62813 28-455): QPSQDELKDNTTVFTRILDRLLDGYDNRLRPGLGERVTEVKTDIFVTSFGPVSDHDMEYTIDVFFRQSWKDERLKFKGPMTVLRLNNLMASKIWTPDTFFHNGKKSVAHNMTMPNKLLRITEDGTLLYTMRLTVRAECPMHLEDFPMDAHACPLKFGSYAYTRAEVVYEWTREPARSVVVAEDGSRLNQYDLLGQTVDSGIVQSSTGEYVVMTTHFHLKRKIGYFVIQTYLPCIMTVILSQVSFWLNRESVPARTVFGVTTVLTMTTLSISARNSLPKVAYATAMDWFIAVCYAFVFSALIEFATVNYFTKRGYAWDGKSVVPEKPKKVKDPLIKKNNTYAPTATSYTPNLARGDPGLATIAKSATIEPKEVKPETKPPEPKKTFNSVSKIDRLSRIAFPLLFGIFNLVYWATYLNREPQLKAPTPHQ
T1 sequence (P63138 25-474 partner limits assumed): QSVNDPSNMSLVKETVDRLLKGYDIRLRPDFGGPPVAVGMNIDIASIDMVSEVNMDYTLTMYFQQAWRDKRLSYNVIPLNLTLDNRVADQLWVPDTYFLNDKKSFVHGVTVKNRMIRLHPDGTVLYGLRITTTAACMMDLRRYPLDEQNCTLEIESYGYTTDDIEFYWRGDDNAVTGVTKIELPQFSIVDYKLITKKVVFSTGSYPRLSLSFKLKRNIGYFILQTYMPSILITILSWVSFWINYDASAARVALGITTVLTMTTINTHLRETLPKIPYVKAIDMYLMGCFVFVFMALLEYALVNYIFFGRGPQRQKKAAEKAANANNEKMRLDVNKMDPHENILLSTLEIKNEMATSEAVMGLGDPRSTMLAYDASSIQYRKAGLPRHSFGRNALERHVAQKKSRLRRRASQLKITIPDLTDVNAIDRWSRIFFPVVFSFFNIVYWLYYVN
T1 sequence (P18508 39-466): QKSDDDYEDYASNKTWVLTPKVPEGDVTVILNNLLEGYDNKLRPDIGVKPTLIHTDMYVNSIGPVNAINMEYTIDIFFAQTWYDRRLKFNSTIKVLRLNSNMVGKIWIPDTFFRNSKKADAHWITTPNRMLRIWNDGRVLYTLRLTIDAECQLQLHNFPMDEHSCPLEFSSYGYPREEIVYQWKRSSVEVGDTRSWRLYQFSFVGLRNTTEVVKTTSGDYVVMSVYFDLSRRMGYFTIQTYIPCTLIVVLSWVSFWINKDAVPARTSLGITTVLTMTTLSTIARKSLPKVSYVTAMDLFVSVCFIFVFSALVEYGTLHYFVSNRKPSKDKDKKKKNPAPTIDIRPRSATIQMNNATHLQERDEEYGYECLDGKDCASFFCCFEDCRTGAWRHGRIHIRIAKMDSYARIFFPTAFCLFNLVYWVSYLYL

In the case of `CN(C)Cc1nc(-c2ncn3c2CN(C)C(=O)c2c(Cl)cccc2-3)no1` [compound of formula (II), 7-chloro-3-(5-dimethylaminomethyl-[1,2,4]oxadiazol-3-yl)-5-methyl-4,5-dihydro-imidazo[1,5-a][1,4]benzodiazepine-6-one], the “Intrinsic activity / type of allosteric modulation” value (GABAA receptor benzodiazepine site, relative to diazepam) is reported as “partial positive allosteric modulator; also recorded: partial agonist”. Besides, the Receptor subtype preference result (at concentrations <100 nM, in comparison to α5β2γ2, α3β2γ2 and α2β2γ2) is listed as “preference for α1β2γ2 GABAA receptors”. Further, the EC50 (α1β2γ2, GABA EC3-5, mean±SD of individually fitted curves, read-out: Potency) turned out to be 18 ± 6 nM. In addition, the “Standardized Efficacy” value (α1β2γ2, standardized to stimulation by 1 μM diazepam (100%)) is on record as 62 ± 10% (n = 4). For the same compound, the Efficacy (α1β2γ2, unstandardized current stimulation) is recorded as 123 ± 19% (n = 4).

The values above are taken from patent publication US20090054412A1, “Treatment of Sleep Disorders” (priority 2007, published 2009).
